Assay results as given in PubChem BioAssay (NCI).
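1) Cells in 96-well plates. 2) Compound, 48 h, 5 concentrations. 3) Linear interpolation between surrounding doses. 4) Unreached endpoint = highest concentration. TGI marks complete inhibition of growth.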

How the values were obtained:
Assay in all cases: inhibition of tumour cell growth, NCI panel, 48 h
HCC-2998 colon = tested on: HCC-2998 colon
UO-31 renal = tested on: UO-31 renal
NCI-H226 lung = tested on: NCI-H226 lung
HT29 colon = tested on: HT29 colon
A549 NSCLC = tested on: A549 NSCLC
SR leukemia = tested on: SR leukemia
NCI-H460 lung = tested on: NCI-H460 lung
DMS 273 small cell lung = tested on: DMS 273 small cell lung
COLO 205 colon = tested on: COLO 205 colon
OVCAR-8 ovarian = tested on: OVCAR-8 ovarian
LXFL 529 NSCLC = tested on: LXFL 529 NSCLC
IGROV1 ovarian = tested on: IGROV1 ovarian
M14 melanoma = tested on: M14 melanoma
SF-539 CNS = tested on: SF-539 CNS
SK-MEL-5 melanoma = tested on: SK-MEL-5 melanoma
XF 498 CNS = tested on: XF 498 CNS
MOLT-4 leukemia = tested on: MOLT-4 leukemia
OVCAR-5 ovarian = tested on: OVCAR-5 ovarian
SK-MEL-28 melanoma = tested on: SK-MEL-28 melanoma
TK-10 renal = tested on: TK-10 renal
M19-MEL melanoma = tested on: M19-MEL melanoma
A498 renal = tested on: A498 renal
KM12 colon = tested on: KM12 colon
OVCAR-4 ovarian = tested on: OVCAR-4 ovarian
DLD-1 colon = tested on: DLD-1 colon
HOP-92 NSCLC = tested on: HOP-92 NSCLC
KM20L2 colon = tested on: KM20L2 colon
NCI-H23 lung = tested on: NCI-H23 lung
SF-295 CNS = tested on: SF-295 CNS
ACHN renal = tested on: ACHN renal
HL-60(TB) leukemia = tested on: HL-60(TB) leukemia
SF-268 CNS = tested on: SF-268 CNS
U251 CNS = tested on: U251 CNS
786-0 renal = tested on: 786-0 renal
MALME-3M melanoma = tested on: MALME-3M melanoma
SNB-78 CNS = tested on: SNB-78 CNS
NCI-H522 lung = tested on: NCI-H522 lung
HOP-62 NSCLC = tested on: HOP-62 NSCLC
LOX IMVI melanoma = tested on: LOX IMVI melanoma
SNB-19 CNS = tested on: SNB-19 CNS
HCT-15 colon = tested on: HCT-15 colon
SK-MEL-2 melanoma = tested on: SK-MEL-2 melanoma
SK-OV-3 ovarian = tested on: SK-OV-3 ovarian
SN12C renal = tested on: SN12C renal
CCRF-CEM leukemia = tested on: CCRF-CEM leukemia
HCT-116 colon = tested on: HCT-116 colon
RPMI-8226 leukemia = tested on: RPMI-8226 leukemia
UACC-257 melanoma = tested on: UACC-257 melanoma
SNB-75 CNS = tested on: SNB-75 CNS
SW-620 colon = tested on: SW-620 colon
DMS 114 small cell lung = tested on: DMS 114 small cell lung
K-562 leukemia = tested on: K-562 leukemia
UACC-62 melanoma = tested on: UACC-62 melanoma
OVCAR-3 ovarian = tested on: OVCAR-3 ovarian
DU-145 prostate = tested on: DU-145 prostate
EKVX NSCLC = tested on: EKVX NSCLC
RXF 393 renal = tested on: RXF 393 renal
CAKI-1 renal = tested on: CAKI-1 renal
HOP-18 NSCLC = tested on: HOP-18 NSCLC

Question: What does the source list for O=C(CSC(=S)N1CCCCC1)Nc1nc2c(s1)CCCC2?
Answer: TGI (HCC-2998 colon): > 100 µM; TGI (UO-31 renal): > 100 µM; TGI (NCI-H226 lung): > 100 µM; TGI (HT29 colon): > 100 µM; TGI (A549 NSCLC): > 100 µM; TGI (SR leukemia): > 100 µM; TGI (NCI-H460 lung): > 100 µM; TGI (DMS 273 small cell lung): > 100 µM; TGI (COLO 205 colon): > 100 µM; TGI (OVCAR-8 ovarian): > 100 µM; TGI (LXFL 529 NSCLC): > 100 µM; TGI (IGROV1 ovarian): > 100 µM; TGI (M14 melanoma): > 100 µM; TGI (SF-539 CNS): > 100 µM; TGI (SK-MEL-5 melanoma): 32.9 µM; TGI (XF 498 CNS): 71.3 µM; TGI (MOLT-4 leukemia): 47.8 µM; TGI (OVCAR-5 ovarian): > 100 µM; TGI (SK-MEL-28 melanoma): > 100 µM; TGI (TK-10 renal): > 100 µM; TGI (M19-MEL melanoma): > 100 µM; TGI (A498 renal): > 100 µM; TGI (KM12 colon): > 100 µM; TGI (OVCAR-4 ovarian): > 100 µM; TGI (DLD-1 colon): > 100 µM; TGI (HOP-92 NSCLC): 94.3 µM; TGI (KM20L2 colon): > 100 µM; TGI (NCI-H23 lung): 92.7 µM; TGI (SF-295 CNS): 79.3 µM; TGI (ACHN renal): > 100 µM; TGI (HL-60(TB) leukemia): 33.8 µM; TGI (SF-268 CNS): > 100 µM; TGI (U251 CNS): > 100 µM; TGI (786-0 renal): > 100 µM; TGI (MALME-3M melanoma): > 100 µM; TGI (SNB-78 CNS): > 100 µM; TGI (NCI-H522 lung): 65.7 µM; TGI (HOP-62 NSCLC): > 100 µM; TGI (LOX IMVI melanoma): 40.6 µM; TGI (SNB-19 CNS): > 100 µM; TGI (HCT-15 colon): > 100 µM; TGI (SK-MEL-2 melanoma): > 100 µM; TGI (SK-OV-3 ovarian): > 100 µM; TGI (SN12C renal): > 100 µM; TGI (CCRF-CEM leukemia): > 100 µM; TGI (HCT-116 colon): 32.2 µM; TGI (RPMI-8226 leukemia): > 100 µM; TGI (UACC-257 melanoma): 57.7 µM; TGI (SNB-75 CNS): > 100 µM; TGI (SW-620 colon): > 100 µM; TGI (DMS 114 small cell lung): > 100 µM

Question: Which results are given for NS(=O)(=O)c1ccccc1C(=O)N/N=C(\c1nc2ccc([N+](=O)[O-])cc2[nH]c1=O)C(O)c1ccc([N+](=O)[O-])cc1 (stereo unspecified)?
Answer: TGI (HCC-2998 colon): > 100 µM; TGI (UO-31 renal): > 100 µM; TGI (NCI-H226 lung): > 100 µM; TGI (K-562 leukemia): > 100 µM; TGI (HT29 colon): > 100 µM; TGI (A549 NSCLC): > 100 µM; TGI (SR leukemia): > 100 µM; TGI (UACC-62 melanoma): > 100 µM; TGI (NCI-H460 lung): > 100 µM; TGI (OVCAR-3 ovarian): > 100 µM; TGI (COLO 205 colon): > 100 µM; TGI (OVCAR-8 ovarian): > 100 µM; TGI (LXFL 529 NSCLC): > 100 µM; TGI (IGROV1 ovarian): > 100 µM; TGI (M14 melanoma): > 100 µM; TGI (SF-539 CNS): > 100 µM; TGI (SK-MEL-5 melanoma): > 100 µM; TGI (XF 498 CNS): > 100 µM; TGI (MOLT-4 leukemia): > 100 µM; TGI (OVCAR-5 ovarian): > 100 µM; TGI (SK-MEL-28 melanoma): > 100 µM; TGI (TK-10 renal): > 100 µM; TGI (DU-145 prostate): > 100 µM; TGI (M19-MEL melanoma): > 100 µM; TGI (A498 renal): > 100 µM; TGI (KM12 colon): > 100 µM; TGI (OVCAR-4 ovarian): > 100 µM; TGI (DLD-1 colon): > 100 µM; TGI (HOP-92 NSCLC): > 100 µM; TGI (KM20L2 colon): > 100 µM; TGI (NCI-H23 lung): > 100 µM; TGI (SF-295 CNS): > 100 µM; TGI (EKVX NSCLC): > 100 µM; TGI (ACHN renal): > 100 µM; TGI (HL-60(TB) leukemia): > 100 µM; TGI (SF-268 CNS): > 100 µM; TGI (U251 CNS): > 100 µM; TGI (786-0 renal): > 100 µM; TGI (MALME-3M melanoma): > 100 µM; TGI (NCI-H522 lung): 59.2 µM; TGI (RXF 393 renal): > 100 µM; TGI (LOX IMVI melanoma): > 100 µM; TGI (SNB-19 CNS): > 100 µM; TGI (HCT-15 colon): > 100 µM; TGI (SK-MEL-2 melanoma): > 100 µM; TGI (CAKI-1 renal): > 100 µM; TGI (SK-OV-3 ovarian): > 100 µM; TGI (SN12C renal): > 100 µM; TGI (CCRF-CEM leukemia): > 100 µM; TGI (HCT-116 colon): > 100 µM; TGI (HOP-18 NSCLC): > 100 µM; TGI (RPMI-8226 leukemia): > 100 µM; TGI (UACC-257 melanoma): > 100 µM; TGI (SNB-75 CNS): > 100 µM; TGI (SW-620 colon): > 100 µM
